Data on 6 compounds can be found in patent publication US20170312282A1, “TYROSINE KINASE INHIBITOR FORMULATIONS FOR THE TREATMENT OF MAST CELL-MEDIATED INFLAMMATORY DISEASES AND METHODS OF USE THEREOF” (The Board of Trustees of the Leland Stanford Junior …, priority 2016, published 2017).

The test system of one series is ABL, KIT, PDGFRs, DDRs. To be noted: read-out: IC50 (nM/L), one bound for ABL; cited from earlier work.
For series [1], the system named is tie2, pdgfrs, ret, kit, B-RAF. To be noted: one bound for tie2, pdgfrs; cited from earlier work.
The test system of series [2] is VEGFRs, PDGFRs, B-RAF, MEK, ERK, c-FMS. The note with it: one bound for VEGFRs; cited from earlier work.
Another series relates to DMM-induced OA. The experiment in a line: Systemic imatinib in DMM model of OA (Example 5). It is filed as in vivo, mice. To be noted: 33 mg/kg/day or 100 mg/kg, orally twice-daily for 12 weeks starting one day after DMM surgery.
The test system of series [3] is FLT3, KIT, MET, RET, VEGFR2. To be noted: one bound for FLT3, KIT; cited from earlier work.
In another series the test system is allergic rhinorrhea. The note with it: intranasal dosing; cited from earlier work.
Another series relates to allergic rhinitis. The note with it: phase II clinical trial for allergic rhinitis; cited from earlier work.

On to `Cc1cn(-c2cc(NC(=O)c3ccc(C)c(Nc4nccc(-c5cccnc5)n4)c3)cc(C(F)(F)F)c2)cn1` [Nilotinib], for which, in the series on ABL, KIT, PDGFRs, DDRs, the IC50 was […].

Regarding `CNC(=O)c1cc(Oc2ccc(NC(=O)Nc3ccc(Cl)c(C(F)(F)F)c3)c(F)c2)ccn1` [Regorafenib], the IC50 in series [1] is […]. Take `CNC(=O)c1cc(Oc2ccc(NC(=O)Nc3ccc(Cl)c(C(F)(F)F)c3)cc2)ccn1` [Sorafenib]: the IC50 in series [2] was below 100 nM. For `Cc1ccc(NC(=O)c2ccc(CN3CCN(C)CC3)cc2)cc1Nc1nccc(-c2cccnc2)n1` [Imatinib], in the series with DMM-induced OA, the “development of DMM-induced OA (histological scores of cartilage damage, synovitis and osteophyte formation)” value is on record as “prevented the development of DMM-induced OA”.

Consider `COc1cc2nccc(Oc3ccc(NC(=O)C4(C(=O)Nc5ccc(F)cc5)CC4)cc3)c2cc1OC` [Cabozatinib], for which the IC50 in series [3] is below 15 nM. On to `Oc1cccc(Nc2ncc(F)c(Nc3cccc(O)c3)n2)c1` [R112], for which, in the series on allergic rhinorrhea, the allergic rhinorrhea entry is reported as “effectively improved allergic rhinorrhea” and the safety result is “safe”. Moreover, the efficacy versus placebo entry with allergic rhinitis is “lack of efficacy versus placebo”.
